Results published in US20130245355A1, “3-HETARYL-SUBSTITUTED PYRROLO[2,3 B]PYRIDINE DERIVATIVES AS PDK1 INHIBITORS” (MERCK PATENT GMBH, priority 2010, published 2013).
pIC50: −log10 of the molar value.

Assays:
PDK1 [1] = molecular target: T1, PDK1 (Homo sapiens, UniProt O15530); test: Cellular testing of PDK1 kinase inhibitors in PC3 cells (Luminex, phospho-T308-PKB); format: cell-based; conditions: 30 min, serum-free
T1 construct: endogenous in cells; host or cells: PC3 cells
T1 sequence (O15530 1-556): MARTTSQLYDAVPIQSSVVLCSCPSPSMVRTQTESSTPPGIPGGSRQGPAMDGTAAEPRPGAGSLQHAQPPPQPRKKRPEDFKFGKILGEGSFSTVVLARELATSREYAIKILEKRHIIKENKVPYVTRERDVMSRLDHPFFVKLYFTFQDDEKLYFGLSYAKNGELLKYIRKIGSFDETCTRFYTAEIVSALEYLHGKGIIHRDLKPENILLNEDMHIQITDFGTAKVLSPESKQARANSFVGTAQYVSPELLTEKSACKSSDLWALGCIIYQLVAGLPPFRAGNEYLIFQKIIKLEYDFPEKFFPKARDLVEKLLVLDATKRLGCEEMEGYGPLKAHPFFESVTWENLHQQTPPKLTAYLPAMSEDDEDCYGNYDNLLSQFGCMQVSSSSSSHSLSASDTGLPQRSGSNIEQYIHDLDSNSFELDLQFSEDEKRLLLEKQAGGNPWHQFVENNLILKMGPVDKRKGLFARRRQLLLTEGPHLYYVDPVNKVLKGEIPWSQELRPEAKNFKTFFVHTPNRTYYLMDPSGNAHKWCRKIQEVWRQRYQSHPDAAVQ
Method: Method for the Cellular Testing of PDK1 Kinase Inhibitors in PC3 Cells.
The cellular assay for the determination of the PDK1 kinase activity is carried out as a Luminex assay in the 96-well format. PC3 cells are sown at 20,000 cells per well in 100 μl of medium (45% of […]/45% of Ham's F12/10% of FCS) and incubated on the following day for 30 min with a serial dilution of the test substance (7 concentrations) under serum-free conditions. The cells are subsequently lysed using 90 μl of lysis buffer (20 mM tris/HCl pH 8.0, 150 mM NaCl, 1% of NP40, 10% of glycerol, 1% of phosphatase inhibitor I, 1% of phosphatase inhibitor II, 0.1% of protease inhibitor cocktail III, 0.01% of benzonase) per well, and the lysates are separated off from insoluble cell constituents by means of centrifugation through a 96-well filter plate (0.65 μm). The lysates are incubated overnight at 4° C. with shaking with Luminex beads to which an anti-total PKB antibody is coupled. The detection is carried out on the following day by addition of a phospho-T308-PKB antibody and a species-specific […] secondary antibody. The detection of phospho T308-PKB is carried out by measurement in a Luminex100 instrument by determination of 100 events per cavity in a measurement time of 60 sec. As pharmacological blank, the signals obtained from cells which have been treated with 10 μM staurosporin are subtracted from all other batches. The control value used for maximum phosphorylation of PKB on T308 are the signals from cells which have only been treated with the solvent (0.3% of DMSO). The values of the batches treated with test substance are calculated therefrom as percentage of control, and IC50 values are determined by means of RS 1.

PDK1 [2] = molecular target: T2, PDK1 (Homo sapiens, UniProt O15530); test: Test for the inhibition of PDK1 (flashplate, 33P-ATP); conditions: His6-PDK1 (1-50) 3.4 nM, 4 μM ATP, 30° C., 60 min; read-out: IC50 [PDK1] biochemical
T2 construct: His6 (N)
T2 sequence (O15530 51-556 limits assumed): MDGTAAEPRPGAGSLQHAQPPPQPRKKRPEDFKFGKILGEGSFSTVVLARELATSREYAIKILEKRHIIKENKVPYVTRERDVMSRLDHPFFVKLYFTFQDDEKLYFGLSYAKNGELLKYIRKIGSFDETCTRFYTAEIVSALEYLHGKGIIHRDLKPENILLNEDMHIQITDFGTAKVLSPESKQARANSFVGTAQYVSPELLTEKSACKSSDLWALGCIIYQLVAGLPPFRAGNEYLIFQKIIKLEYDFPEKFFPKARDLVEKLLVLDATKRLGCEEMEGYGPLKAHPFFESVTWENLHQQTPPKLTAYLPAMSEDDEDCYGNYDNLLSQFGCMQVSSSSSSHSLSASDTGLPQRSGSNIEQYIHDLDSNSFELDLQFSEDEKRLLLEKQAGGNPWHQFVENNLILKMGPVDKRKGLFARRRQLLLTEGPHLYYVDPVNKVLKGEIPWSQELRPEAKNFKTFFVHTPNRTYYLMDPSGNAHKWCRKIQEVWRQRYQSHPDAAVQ
Method: The experimental batches are carried out in a flashplate system with 384 wells/microtitration plate.
In each case, the PDK1 sample His6-PDK1 (1-50) (3.4 nM), the PDK1 substrate biotin-bA-bA-[…] (400 nM), 4 μM ATP (with 0.2μ Ci of ^33P-ATP/well) and the test substance in 50 μl of conventional experimental solution per well are incubated at 30° C. for 60 min. The test substances are employed in corresponding concentrations (if desired in a dilution series). The control is carried out without test substance. The reaction is stopped using standard methods and washed. The activity of the kinase is measured via the incorporated radioactivity in top count. In order to determine the non-specific kinase reaction (blank value), the experimental batches are carried out in the presence of 100 nM staurosporin.
The radioactivity (decompositions per minute) of the blank value (no use of test substance in the presence of staurosporin) is subtracted from all other radioactivity values. The controls (kinase activity without test substance) are set equal to 100 percent and all other radioactivity values (after subtracting the blank value) are expressed set in relation thereto (for example in % of the control).
IC50 values (50% inhibition) are determined with the aid of statistics programmes, such as, for example, RS1.

Row | Structure (SMILES) | pIC50 (PDK1 [1]) | pIC50 (PDK1 [2])
1 | Cn1cc(-c2cnc3[nH]cc(-c4cc([C@](C)(O)c5ccccc5F)on4)c3c2)cn1 (single isomer, unassigned) [A55] | 6.00 to 9.30 | 6.00 to 9.30
2 | Cn1cc(-c2cnc3[nH]cc(-c4cc(CO)on4)c3c2)cn1 [A105] | 5.00 to 6.00 | 6.00 to 9.30
3 | Cn1cc(-c2cnc3[nH]cc(-c4cc(C(C)(O)c5ccccc5F)on4)c3c2)cn1 (stereo not shown) [A6] | 6.00 to 9.30 | 6.00 to 9.30
4 | Cn1cc(-c2cnc3[nH]cc(-c4cc(C(C)(O)c5cccc(F)c5F)on4)c3c2)cn1 (stereo not shown) [A61] | 6.00 to 9.30 | 6.00 to 9.30
5 | Cn1cc(-c2cnc3[nH]cc(-c4nnc(C(O)c5ccccc5Cl)o4)c3c2)cn1 (racemic) [A58] | 6.00 to 9.30 | 6.00 to 9.30
6 | Cn1cc(-c2cnc3[nH]cc(-c4n[nH]c(Cc5cccc(F)c5)n4)c3c2)cn1 [A14, 3-[5-(3-fluorobenzyl)-1H-1,2,4-triazol-3-yl]-5-(1-methyl-1H-pyrazol-4-yl)-1H-pyrrolo[2,3-b]pyridine] | 5.00 to 6.00 | 6.00 to 9.30
7 | CCC(O)(c1cccc(F)c1)c1cc(-c2c[nH]c3ncc(-c4cnn(C)c4)cc23)no1 (stereo not shown) [A11] | 6.00 to 9.30 | 6.00 to 9.30
8 | Cn1cc(-c2cnc3[nH]cc(-c4noc(C(C)(O)c5cccc(F)c5F)n4)c3c2)cn1 (stereo not shown) [A52] | 5.00 to 6.00 | 6.00 to 9.30
9 | Cn1cc(-c2cnc3[nH]cc(-c4n[nH]c(Cc5cccc(F)c5F)n4)c3c2)cn1 [A16] | 6.00 to 9.30 | 6.00 to 9.30
10 | Cn1cc(-c2cnc3[nH]cc(-c4cc(C(C)(O)c5ccccc5Cl)on4)c3c2)cn1 (stereo not shown) [A89] | 6.00 to 9.30 | 6.00 to 9.30
11 | Cn1cc(-c2cnc3[nH]cc(-c4n[nH]c(C5(c6ccc(=O)[nH]c6)CC5)n4)c3c2)cn1 [A126, 5-(1-{5-[5-(1-methyl-1H-pyrazol-4-yl)-1H-pyrrolo[2,3-b]pyridin-3-yl]-2H-1,2,4-triazol-3-yl}cyclopropyl)-1H-pyridin-2-one] | 5.00 to 6.00 | 6.00 to 9.30
12 | COC(=O)c1ccc(C(O)c2nnc(-c3c[nH]c4ncc(-c5cnn(C)c5)cc34)o2)c(Cl)c1 (stereo not shown) [A128, methyl 3-chloro-4-(hydroxy-{5-[5-(1-methyl-1H-pyrazol-4-yl)-1H-pyrrolo[2,3-b]-pyridin-3-yl]-1,3,4-oxadiazol-2-yl}methyl)benzoate] | 5.00 to 6.00 | 5.00 to 6.00
13 | Cn1cc(-c2cnc3[nH]cc(-c4nnc(C(C)(O)c5ccccc5Cl)o4)c3c2)cn1 (stereo not shown) [A132, I-(2-chlorophenyl)-1-{5-[5-(1-methyl-1H-pyrazol-4-yl)-1H-pyrrolo[2,3-b]pyridin-3-yl]-1,3,4-oxadiazol-2-yl}ethanol] | 5.00 to 6.00 | 6.00 to 9.30
14 | Cn1cc(-c2cnc3[nH]cc(-c4nnc(C(C)(O)c5ccccc5F)o4)c3c2)cn1 (stereo not shown) [A48] | 6.00 to 9.30 | 6.00 to 9.30
15 | Cn1cc(-c2cnc3[nH]cc(-c4cc([C@](C)(O)c5cccc(F)c5)on4)c3c2)cn1 (single isomer, unassigned) [A63] | 5.00 to 6.00 | 6.00 to 9.30
16 | Cn1cc(-c2cnc3[nH]cc(-c4nnc(C(O)c5ccc(Cl)cc5)o4)c3c2)cn1 (stereo not shown) [A60] | 5.00 to 6.00 | 5.00 to 6.00
17 | Cn1cc(-c2cnc3[nH]cc(-c4cc(C(O)c5ccccc5)n(C)n4)c3c2)cn1 (stereo not shown) [A84] | 5.00 to 6.00 | 6.00 to 9.30
18 | Cn1cc(-c2cnc3[nH]cc(-c4n[nH]c(Cc5ccccc5)n4)c3c2)cn1 [A17] | 5.00 to 6.00 | 6.00 to 9.30

Row | Structure (SMILES) | pIC50 (PDK1 [1]) | pIC50 (PDK1 [2])
19 | Cn1cc(-c2cnc3[nH]cc(-c4cc(C(C)(O)c5cccc(F)c5)on4)c3c2)cn1 (stereo not shown) [A36] | 6.00 to 9.30 | 6.00 to 9.30
20 | CN[C@@H](c1ccccc1)c1nnc(-c2c[nH]c3ncc(-c4cnn(C)c4)cc23)o1 [A116] | 5.00 to 6.00 | 6.00 to 9.30
21 | Cn1cc(-c2cnc3[nH]cc(-c4n[nH]c(C5(c6ccc(Cl)nc6)CC5)n4)c3c2)cn1 [A122, 3-{5-[1-(6-chloropyridin-3-yl)cyclopropyl]-1H-1,2,4-triazol-3-yl}-5-(1-methyl-1H-pyrazol-4-yl)-1H-pyrrolo[2,3-b]pyridine] | 5.00 to 6.00 | 5.00 to 6.00
22 | COc1ccc(C2(c3nc(-c4c[nH]c5ncc(-c6cnn(C)c6)cc45)n[nH]3)CC2)cn1 [A127, 3-{5-[1-(6-methoxypyridin-3-yl)cyclopropyl]-1H-1,2,4-triazol-3-yl}-5-(1-methyl-1H-pyrazol-4-yl)-1H-pyrrolo[2,3-b]pyridine] | 5.00 to 6.00 | 5.00 to 6.00
23 | Cn1cc(-c2cnc3[nH]cc(-c4cc([C@](C)(O)c5cccc(F)c5)on4)c3c2)cn1 (single isomer, unassigned) [A62] | 5.00 to 6.00 | 6.00 to 9.30
24 | C=C(c1ccccc1)c1cc(-c2c[nH]c3ncc(-c4cnn(C)c4)cc23)nn1CCO [A69] | 5.00 to 6.00 | 5.00 to 6.00
25 | Cn1cc(-c2cnc3[nH]cc(-c4nnc(Cc5ccccc5)o4)c3c2)cn1 [A21] | 5.00 to 6.00 | 6.00 to 9.30
26 | Cn1cc(-c2cnc3[nH]cc(-c4n[nH]c(C(C)(O)c5ccccc5F)n4)c3c2)cn1 (stereo not shown) [A49] | 5.00 to 6.00 | 6.00 to 9.30
27 | Cn1cc(-c2cnc3[nH]cc(-c4nnc([C@@H](N)c5ccccc5Cl)o4)c3c2)cn1 [A113] | 5.00 to 6.00 | 6.00 to 9.30
28 | Cn1cc(-c2cnc3[nH]cc(-c4n[nH]c(C(=O)c5ccccc5)n4)c3c2)cn1 [A39] | 5.00 to 6.00 | 5.00 to 6.00
29 | Cn1cc(-c2cnc3[nH]cc(-c4nnc(C5(c6ccc(Cl)nc6)CC5)o4)c3c2)cn1 [A123, 3-{5-[1-(6-chloropyridin-3-yl)cyclopropyl]-1,3,4-oxadiazol-2-yl}-5-(1-methyl-1H-pyrazol-4-yl)-1H-pyrrolo[2,3-b]pyridine] | 5.00 to 6.00 | 5.00 to 6.00
30 | Cn1cc(-c2cnc3[nH]cc(-c4n[nH]c(C(C)(O)c5cccc(F)c5F)n4)c3c2)cn1 (stereo not shown) [A54] | 5.00 to 6.00 | 6.00 to 9.30
31 | Cn1cc(-c2cnc3[nH]cc(-c4noc(C(C)(O)c5ccccc5)n4)c3c2)cn1 (stereo not shown) [A31] | 6.00 to 9.30 | 6.00 to 9.30
32 | Cn1cc(-c2cnc3[nH]cc(-c4nnc(C5(c6ccccc6F)CC5)o4)c3c2)cn1 [A70] | 6.00 to 9.30 | 6.00 to 9.30
33 | Cn1cc(-c2cnc3[nH]cc(-c4noc(C(C)(O)c5ccccc5F)n4)c3c2)cn1 (stereo not shown) [A50] | 5.00 to 6.00 | 6.00 to 9.30
34 | Cn1cc(-c2cnc3[nH]cc(-c4n[nH]c(C(C)(O)c5cccc(F)c5)n4)c3c2)cn1 (stereo not shown) [A44] | 5.00 to 6.00 | 6.00 to 9.30
35 | Cn1cc(-c2cnc3[nH]cc(-c4csc(Cc5ccccc5F)n4)c3c2)cn1 [A4] | 5.00 to 6.00 | 5.00 to 6.00
